Read-outs that look alike come from different tables or passages of the source.
Columns and labels:
primary CLL cells = assay: Annexin-V apoptosis assay, primary CLL cells; format: cell-based, human; details: one day Annexin-V apoptosis assay
[1] = In vitro plasma stability; format: in vitro ADME
PPC-1 xenograft tumors = details: for tumor response compared with control group in first week: i.p. three times in first week at 50 mg/kg
[2] = administered orally; cited from earlier work
[3] = system: B6-Bcl-2 transgenic mice (B-cells overexpress human Bcl-2); assay: B6-Bcl-2 transgenic mouse spleen weight study; details: for tolerability / toxicity of treated mice: 60 μmol/kg i.p., single injection; for tolerability of treated mice: i.p. at 30 μmol/kg; for in vivo activity compared to 6a: dose of 60 μmol/kg (Figure 3A)
Bcl-XL = Bcl-XL (Homo sapiens, UniProt Q07817); assay: 2D [15N,1H]-HSQC binding to 15N-labeled Bcl-XL; details: ligand/protein ratio of 1:1
Chain of Bcl-XL (Q07817 whole entry): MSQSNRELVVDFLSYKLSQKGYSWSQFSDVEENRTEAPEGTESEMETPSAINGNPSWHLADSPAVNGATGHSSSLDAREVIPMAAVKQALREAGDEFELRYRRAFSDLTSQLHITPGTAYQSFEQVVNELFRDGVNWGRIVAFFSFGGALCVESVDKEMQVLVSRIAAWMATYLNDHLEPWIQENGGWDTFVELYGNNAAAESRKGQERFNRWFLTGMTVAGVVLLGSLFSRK

[4] = system: B6-Bcl-2 transgenic mice (B-cells overexpress human Bcl-2); details: ip, 60 umol/kg
BP3 cell line = assay: Annexin V-FITC and propidium iodide apoptosis assay, BP3
GST–Bcl-XL ΔTM protein = GST–Bcl-XL ΔTM protein (Homo sapiens, UniProt Q07817); assay: Fluorescence polarization assay; format: binding
Chain of GST–Bcl-XL ΔTM protein (Q07817 1-211 limits assumed, stated change not applied): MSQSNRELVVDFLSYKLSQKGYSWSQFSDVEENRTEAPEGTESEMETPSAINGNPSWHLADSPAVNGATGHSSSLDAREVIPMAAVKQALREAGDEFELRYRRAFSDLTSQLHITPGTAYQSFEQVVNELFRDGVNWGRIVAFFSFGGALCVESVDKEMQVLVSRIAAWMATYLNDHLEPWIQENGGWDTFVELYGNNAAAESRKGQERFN

For `CC1=C(C2=C(C)C(=O)c3c(cc(O)c(O)c3C(C)C)C2=O)C(=O)c2cc(O)c(O)c(C(C)C)c2C1=O` [Compound 6a, 6,6′,7,7′-tetrahydroxy-5,5′-diisopropyl-3,3′-dimethyl-2,2′-binaphthyl-1,1′,4,4′-tetraone], the “LD50 primary CLL sample (first of two, Figure 2D)” value (primary CLL cells) was over 30 µM, the “LD50 primary CLL sample (second of two, Supplementary 3B)” value (primary CLL cells) was over 30 µM and the “LD50 primary CLL samples (Supplementary Figure 3A)” value (primary CLL cells) was over 30 µM. For the same compound, the “degraded after 1 h incubation in rat plasma preparations (second statement)” value (“degraded after 1 h incubation” below) [1] was 23%, the “weight loss in first week” value (PPC-1 xenograft tumors; 50 mg/kg i.p. three times in first week) was ~ 5% and the “tumor response compared with control group in first week” value (PPC-1 xenograft tumors) was “strong tumor regression”. For the same compound, the “maximum tolerated dose (MTD)” value [2] was “above 240 mg/kg” and the “percent of maximum reduction in spleen weight (biological activity)” value ([3]; 60 μmol/kg ip, maximum spleen shrinkage no more than 50%) was 40%.
For `CC1=C(C2=C(C)C(=O)c3c(cc(O)c(O)c3Cc3ccccc3)C2=O)C(=O)c2cc(O)c(O)c(Cc3ccccc3)c2C1=O` [Compound 6i, 5,5′-dibenzyl-6,6′,7,7′-tetrahydroxy-3,3′-dimethyl-2,2′-binaphthyl-1,1′,4,4′-tetraone], the “degraded after 1 h incubation” value [1] was 5%, the “binding to Bcl-XL by 2D [15N,1H]-HSQC, qualitative” value (“binding to Bcl-XL by 2D” for short) (Bcl-XL) was “strong binding” and the “survival of treated mice in first week” value (PPC-1 xenograft tumors; mouse, in vivo) was “died”. The “tolerability / toxicity of treated mice” value [3] was “died” and the “tolerability of treated mice” value [3] was “well tolerated”.
In the case of `Cc1cc2c(C(C)C)c(O)c(O)c(C=O)c2c(O)c1-c1c(C)cc2c(C(C)C)c(O)c(O)c(C=O)c2c1O` [Compound 1, 1,1′,6,6′,7,7′-Hexahydroxy-5,5′-diisopropyl-3,3′-dimethyl-2,2′-binaphthyl-8,8′-dicarboxaldehyde], the “survival of treated mice in first week” value (PPC-1 xenograft tumors; 25 mg/kg, i.p.) is reported as “died”.
For `CC1=C(C2=C(C)C(=O)c3c(cc(O)c(O)c3C(=O)NCC(C)c3ccccc3)C2=O)C(=O)c2cc(O)c(O)c(C(=O)NCC(C)c3ccccc3)c2C1=O` (stereo not shown) [Compound 8a, 6,6′,7,7′-Tetrahydroxy-3,3′-dimethyl-1,1′,4,4′-tetraoxo-N^5,N^5′-bis(2-phenylpropyl)-1,1′,4,4′-tetrahydro-2,2′-binaphthyl-5,5′-dicarboxamide], the “binding to Bcl-XL by 2D” value (Bcl-XL) was “strong binding” and the “tolerability / toxicity of treated mice” value [3] was “died”.
For `CC1=C(C2=C(C)C(=O)c3c(cc(O)c(O)c3CCc3ccc(C)cc3)C2=O)C(=O)c2cc(O)c(O)c(CCc3ccc(C)cc3)c2C1=O` [Compound 6f, 6,6′,7,7′-tetrahydroxy-3,3′-dimethyl-5,5′-bis(4-methylphenethyl)-2,2′-binaphthyl-1,1′,4,4′-tetraone], the “LD50 primary CLL sample (second of two, Supplementary 3B)” value (primary CLL cells) was 15 µM, the “degraded after 1 h incubation” value [1] was 14% and the “binding to Bcl-XL by 2D” value (Bcl-XL) was “strong binding”. For the same compound, the “tumor response compared with control group in first week” value (PPC-1 xenograft tumors) was “strong tumor regression”, the “tolerability / toxicity of treated mice” value [3] was “no observed toxicity” and the “in vivo activity compared to 6a” value [3] was “superior”. For the same compound, the signs of toxicity ([3]; groups of seven mice, 60 μmol/kg) was “no evident signs of toxicity”.
With `CC1=C(C2=C(C)C(=O)c3c(cc(O)c(O)c3CC3CCCC3)C2=O)C(=O)c2cc(O)c(O)c(CC3CCCC3)c2C1=O` [Compound 6c, 5,5′-bis(cyclopentylmethyl)-6,6′,7,7′-tetrahydroxy-3,3′-dimethyl-2,2′-binaphthyl-1,1′,4,4′-tetraone] the “LD50 primary CLL samples (Supplementary Figure 3A)” value (primary CLL cells) was 6.5 µM.
In the case of `CC1=C(C2=C(C)C(=O)c3c(cc(O)c(O)c3CC(C)C)C2=O)C(=O)c2cc(O)c(O)c(CC(C)C)c2C1=O` [Compound 6b, 6,6′,7,7′-tetrahydroxy-5,5′-diisobutyl-3,3′-dimethyl-2,2′-binaphthyl-1,1′,4,4′-tetraone], the “percent of maximum reduction in spleen weight (biological activity)” value [4] is reported as 60-80%, the spleen weight reduction [4] is reported as 30-40% and the “tolerability / toxicity of treated mice” value [3] is reported as “no observed toxicity”. The “in vivo activity compared to 6a” value [3] was “superior”.
For `CC1=C(C2=C(C)C(=O)c3c(cc(O)c(O)c3CCC3CCCCC3)C2=O)C(=O)c2cc(O)c(O)c(CCC3CCCCC3)c2C1=O` [Compound 6d, 5,5′-bis(2-cyclohexylethyl)-6,6′,7,7′-tetrahydroxy-3,3′-dimethyl-2,2′-binaphthyl-1,1′,4,4′-tetraone], the “tolerability / toxicity of treated mice” value [3] was “no observed toxicity” and the “in vivo activity compared to 6a” value [3] was “superior”.
In the case of ABT-737, the “cytotoxic activity against BP3 cell lines” value (BP3 cell line) is reported as “no cytotoxic activity”.
For `CC1=C(C2=C(C)C(=O)c3c(cc(O)c(O)c3Cc3ccc(Cl)cc3)C2=O)C(=O)c2cc(O)c(O)c(Cc3ccc(Cl)cc3)c2C1=O` [Compound 6l, 5,5′-bis(4-chlorobenzyl)-6,6′,7,7′-tetrahydroxy-3,3′-dimethyl-2,2′-binaphthyl-1,1′,4,4′-tetraone], the “tolerability / toxicity of treated mice” value [3] was “died” and the “tolerability of treated mice” value [3] was “well tolerated”.
`CC1=C(C2=C(C)C(=O)c3c(cc(O)c(O)c3Cc3ccc(-c4ccccc4)cc3)C2=O)C(=O)c2cc(O)c(O)c(Cc3ccc(-c4ccccc4)cc3)c2C1=O` [Compound 6m, 5,5′-bis(biphenyl-4-ylmethyl)-6,6′,7,7′-tetrahydroxy-3,3′-dimethyl-2,2′-binaphthyl-1,1′,4,4′-tetraone] gave an IC50 (GST–Bcl-XL ΔTM protein) of 160 to 630 nM.

Reference: paper PMC3059195 (Journal of medicinal chemistry, 2010)
